From ChEMBL document CHEMBL1201862, “PubChem BioAssay data set” (2004)
Active and inactive are the calls of the source.

Legend:
Format in all cases: functional
[1] = target: T1, Protein RecA (Mycobacterium tuberculosis, UniProt P9WHJ3); experiment: Fluorescence Cell-Free Homogeneous Dose Retest to Identify Inhibitors of RecA-Intein Splicing Activity. [Related pubchem assays (depositor defined):AID2097, AID2223, AID489010, AID492950]
T1 sequence (P9WHJ3 whole entry): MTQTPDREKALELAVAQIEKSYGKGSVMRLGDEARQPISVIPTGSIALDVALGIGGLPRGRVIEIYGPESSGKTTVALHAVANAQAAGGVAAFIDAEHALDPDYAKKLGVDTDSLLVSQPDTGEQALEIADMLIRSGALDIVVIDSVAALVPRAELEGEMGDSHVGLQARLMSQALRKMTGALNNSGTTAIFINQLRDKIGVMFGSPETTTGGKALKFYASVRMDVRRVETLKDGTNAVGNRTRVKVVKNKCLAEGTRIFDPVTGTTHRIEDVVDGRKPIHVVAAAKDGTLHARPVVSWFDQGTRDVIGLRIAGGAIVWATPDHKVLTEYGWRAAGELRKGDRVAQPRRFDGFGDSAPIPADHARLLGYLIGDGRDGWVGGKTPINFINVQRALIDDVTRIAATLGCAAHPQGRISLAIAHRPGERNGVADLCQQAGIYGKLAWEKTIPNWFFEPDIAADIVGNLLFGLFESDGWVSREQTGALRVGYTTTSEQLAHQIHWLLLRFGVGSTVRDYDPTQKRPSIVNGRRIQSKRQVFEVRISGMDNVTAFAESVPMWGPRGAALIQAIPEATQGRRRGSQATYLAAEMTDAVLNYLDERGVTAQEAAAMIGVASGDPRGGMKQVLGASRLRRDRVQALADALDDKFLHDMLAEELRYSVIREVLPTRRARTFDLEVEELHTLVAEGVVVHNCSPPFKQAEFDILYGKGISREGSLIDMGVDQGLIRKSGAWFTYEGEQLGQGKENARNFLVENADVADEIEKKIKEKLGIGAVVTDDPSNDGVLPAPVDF

[2] = target: T2, Replicative DNA helicase DnaB (Mycobacterium tuberculosis, UniProt P9WMR3); experiment: DnaB intein splicing inhibitors, dose response, biochemical, cell-free fluorescence (AID 449749)
T2 sequence (P9WMR3 whole entry): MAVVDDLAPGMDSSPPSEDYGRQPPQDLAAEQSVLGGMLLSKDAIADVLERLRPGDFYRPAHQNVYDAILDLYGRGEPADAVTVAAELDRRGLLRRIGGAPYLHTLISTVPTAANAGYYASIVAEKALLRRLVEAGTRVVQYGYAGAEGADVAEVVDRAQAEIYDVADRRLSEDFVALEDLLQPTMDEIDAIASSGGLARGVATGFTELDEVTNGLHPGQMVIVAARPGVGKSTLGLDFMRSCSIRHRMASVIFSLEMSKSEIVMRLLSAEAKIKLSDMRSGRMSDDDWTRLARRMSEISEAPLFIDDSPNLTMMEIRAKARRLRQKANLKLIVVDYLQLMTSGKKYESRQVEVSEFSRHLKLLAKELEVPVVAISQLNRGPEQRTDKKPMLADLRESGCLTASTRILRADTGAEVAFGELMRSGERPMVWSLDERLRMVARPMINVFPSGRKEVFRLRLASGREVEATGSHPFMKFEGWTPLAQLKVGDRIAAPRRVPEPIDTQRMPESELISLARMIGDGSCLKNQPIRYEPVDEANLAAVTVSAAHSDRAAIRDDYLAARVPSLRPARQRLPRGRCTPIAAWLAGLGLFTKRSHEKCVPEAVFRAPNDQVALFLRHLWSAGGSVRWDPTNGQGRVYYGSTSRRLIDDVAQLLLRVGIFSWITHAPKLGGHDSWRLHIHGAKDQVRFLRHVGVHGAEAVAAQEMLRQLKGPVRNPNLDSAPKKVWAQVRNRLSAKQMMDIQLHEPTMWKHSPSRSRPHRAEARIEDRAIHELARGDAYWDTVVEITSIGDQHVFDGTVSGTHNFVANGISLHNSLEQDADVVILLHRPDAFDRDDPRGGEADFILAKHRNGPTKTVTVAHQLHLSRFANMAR

[3] = target: T3, Sentrin-specific protease 8 (Homo sapiens, UniProt Q96LD8);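 also: luminescence read-out of SENP8 inhibition, dose-response confirmation following an ultra-high-throughput screen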
T3 sequence (Q96LD8 whole entry): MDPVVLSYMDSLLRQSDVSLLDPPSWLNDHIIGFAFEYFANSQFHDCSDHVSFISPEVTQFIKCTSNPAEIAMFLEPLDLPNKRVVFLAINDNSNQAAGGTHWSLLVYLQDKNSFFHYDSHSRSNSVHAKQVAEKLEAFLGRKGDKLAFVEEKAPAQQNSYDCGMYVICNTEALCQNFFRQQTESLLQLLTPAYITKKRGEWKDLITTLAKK

[4] = target: T4, Sentrin-specific protease 6 (Homo sapiens, UniProt Q9GZR1);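 also: Luminescence-based dose-response confirmatory assay of SENP6 inhibition, following up an ultra-high-throughput screen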
T4 sequence (Q9GZR1 whole entry): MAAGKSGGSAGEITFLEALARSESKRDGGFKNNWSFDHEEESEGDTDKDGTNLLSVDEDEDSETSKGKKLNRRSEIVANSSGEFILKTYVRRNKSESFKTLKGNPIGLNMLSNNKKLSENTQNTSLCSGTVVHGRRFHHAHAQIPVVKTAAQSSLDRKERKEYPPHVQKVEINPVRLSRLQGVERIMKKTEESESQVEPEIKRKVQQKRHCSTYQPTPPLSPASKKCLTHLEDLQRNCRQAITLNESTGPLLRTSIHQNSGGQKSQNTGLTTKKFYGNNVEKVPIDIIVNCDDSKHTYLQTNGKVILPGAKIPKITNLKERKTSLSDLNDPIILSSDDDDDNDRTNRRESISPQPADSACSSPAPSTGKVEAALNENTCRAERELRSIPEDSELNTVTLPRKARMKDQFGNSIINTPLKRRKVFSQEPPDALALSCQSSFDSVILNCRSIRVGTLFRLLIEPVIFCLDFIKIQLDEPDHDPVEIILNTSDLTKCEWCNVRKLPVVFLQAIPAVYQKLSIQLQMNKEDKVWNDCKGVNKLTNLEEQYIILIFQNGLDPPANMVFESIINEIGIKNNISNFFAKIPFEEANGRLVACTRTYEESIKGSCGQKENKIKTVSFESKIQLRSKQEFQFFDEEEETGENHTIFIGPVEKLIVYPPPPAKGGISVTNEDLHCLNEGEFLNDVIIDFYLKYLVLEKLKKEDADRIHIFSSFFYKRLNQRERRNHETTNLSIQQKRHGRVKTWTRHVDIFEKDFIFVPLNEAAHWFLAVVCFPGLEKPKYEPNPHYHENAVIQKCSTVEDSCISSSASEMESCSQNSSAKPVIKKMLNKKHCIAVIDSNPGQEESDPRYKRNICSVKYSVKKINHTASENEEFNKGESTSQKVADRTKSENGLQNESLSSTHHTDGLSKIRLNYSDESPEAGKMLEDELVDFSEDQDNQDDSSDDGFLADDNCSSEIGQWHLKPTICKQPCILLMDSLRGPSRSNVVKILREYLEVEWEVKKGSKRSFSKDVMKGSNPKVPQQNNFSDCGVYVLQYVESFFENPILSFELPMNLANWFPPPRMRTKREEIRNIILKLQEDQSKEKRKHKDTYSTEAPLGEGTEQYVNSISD

| SMILES | EC50 [1] | AC50 [2] | IC50 [3] | IC50 [4] |
| --- | --- | --- | --- | --- |
| Cc1cccc(C)c1-n1cccc1/C=C1\SC(=S)N(c2cccc(C(=O)O)c2)C1=O | 9.09 µM (active) | 3.26 µM (active) | – | – |
| Oc1ccc(/C=N/Nc2cc(N3CCCC3)nc(N3CCCC3)n2)cc1 | – | – | 22.1 µM (active) | 6.05 µM (active) |
| COc1ccc(S(=O)(=O)/N=C2\C=C(Nc3ccc(O)cc3)C(=O)c3ccccc32)cc1 | 0.141 µM (active) | > 380 µM (inconclusive) | – | – |
| COc1ccc(/C=N/Nc2cc(N3CCCC3)nc(N3CCCC3)n2)cc1 | – | – | 7.52 µM (active) | 2.71 µM (active) |
